The target in the test is T1, GST-tagged ROR gamma ligand binding domain (LBD) (Homo sapiens, UniProt P51449).
T1 construct: purchased Invitrogen
T1 sequence (P51449 269-508 limits assumed): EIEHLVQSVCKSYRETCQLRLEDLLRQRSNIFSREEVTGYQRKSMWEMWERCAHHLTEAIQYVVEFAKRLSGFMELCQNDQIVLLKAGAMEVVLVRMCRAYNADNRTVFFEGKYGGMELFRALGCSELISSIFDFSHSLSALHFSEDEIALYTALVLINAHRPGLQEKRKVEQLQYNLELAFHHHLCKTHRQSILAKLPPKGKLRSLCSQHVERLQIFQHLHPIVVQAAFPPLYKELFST
Nature of the test: TR-FRET assay for ROR gamma (LanthaScreen co-activator peptide recruitment). The class given is biochemical. Conditions: for pIC50: class symbols, from dose response curve; for inhibition at 1 µM: compound 1 μM; for inhibition at 1 µM / inhibition at 10 µM: TR-FRET ratio 520/495, percent of control; for inhibition at 10 µM: compound 10 μM. The essentials: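 Antagonist mode: 10 nM GST-RORγ LBD pre-incubated with compound 1 h at 22 °C in 25 mM HEPES pH 7.4, 100 mM NaCl, 5 mM DTT, 0.01% BSA, 4% DMSO final. Then 300 nM fluorescein-D22 co-activator peptide plus 10 nM Tb-anti-GST added, 1 h at room temperature. IC50 by nonlinear regression of the 520/495 TR-FRET ratio as percent of no-compound control.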
For orientation: TR-FRET usually uses a lanthanide donor and a delayed reading to cut background.

pIC50: −log10 of the molar value.

The values that follow come from patent publication US9718817B2, “Aryl and heteroaryl ether compounds as ROR gamma modulators” (Glenmark Pharmaceuticals S.A., priority 2014, dated 2017).

As usually defined, the pIC50 is the IC50 on a negative log10 scale, so that one unit is a factor of ten. For orientation: inhibition means the drop in the measured response relative to a control, in per cent. `CCn1c(C(C)(C)Oc2ccc(NC(=O)Cc3ccc(S(=O)(=O)CC)cc3)cc2F)nc2cc(F)ccc21` [Example 111, 2-(4-Ethanesulfonyl-phenyl)-N-{4-[1-(1-ethyl-5-fluoro-1H-benzoimidazol-2-yl)-1-methyl-ethoxy]-3-fluoro-phenyl}-acetamide]: the pIC50 was more than 7.30, the inhibition at 1 µM stood at 88% and the inhibition at 10 µM stood at 86.8%.

As to `CCS(=O)(=O)c1ccc(CC(=O)Nc2ccc3c(c2)nc(C(C)(C)Oc2ccc(F)cc2F)n3CCN(C)C)cc1` [Example 113, N-[2-[1-(2,4-Difluoro-phenoxy)-1-methyl-ethyl]-1-(2-dimethylamino-ethyl)-1H-benzoimidazol-5-yl]-2-(4-ethanesulfonyl-phenyl)-acetamide], the inhibition at 1 µM came to 15.6% and the inhibition at 10 µM was found to be 52.4%.

On to `CCS(=O)(=O)c1ccc(CC(=O)Nc2ccc3c(c2)nc(C(C)(C)Oc2ccc(F)cc2F)n3CC2CC2)cc1` [Example 114, N-{1-Cyclopropylmethyl-2-[1-(2,4-difluoro-phenoxy)-1-methyl-ethyl]-1H-benzoimidazol-5-yl}-2-(4-ethanesulfonyl-phenyl)-acetamide], for which the negative logarithm of the IC50 (pIC50) is more than 7.30, the inhibition at 1 µM was found to be 78.9% and the inhibition at 10 µM came to 82.6%.

On to `CCCn1c(C(C)(C)Oc2ccc(F)cc2F)nc2cc(NC(=O)Cc3ccc(S(=O)(=O)CC)cc3)ccc21` [Example 115, N-{2-[1-(2,4-Difluoro-phenoxy)-1-methyl-ethyl]-1-propyl-1H-benzoimidazol-5-yl}-2-(4-ethanesulfonyl-phenyl)-acetamide], for which the pIC50 was more than 7.30, the inhibition at 1 µM worked out at 82.4% and the inhibition at 10 µM came out at 88.3%.

Regarding `CCS(=O)(=O)c1ccc(CC(=O)Nc2ccc3c(c2)nc(C(C)(C)Oc2ccc(F)cc2F)n3CC(C)C)cc1` [Example 116, N-{2-[1-(2,4-Difluoro-phenoxy)-1-methyl-ethyl]-1-isobutyl-1H-benzoimidazol-5-yl}-2-(4-ethanesulfonyl-phenyl)-acetamide], the negative-log IC50 (pIC50) was less than 7.00, the inhibition at 1 µM is 79.1% and the inhibition at 10 µM turned out to be 84.5%.

Consider `CCS(=O)(=O)c1ccc(CC(=O)Nc2ccc3c(c2)nc(C(C)(C)Oc2ccc(F)cc2F)n3C(C)C)cc1` [Example 117, N-{2-[1-(2,4-Difluoro-phenoxy)-1-methyl-ethyl]-1-isopropyl-1H-benzoimidazol-5-yl}-2-(4-ethanesulfonyl-phenyl)-acetamide], for which the pIC50 was less than 7.00, the inhibition at 1 µM was 82.7% and the inhibition at 10 µM amounted to 86.7%.

With `CCn1c(C(F)(F)Oc2ccc(F)cc2F)nc2cc(NC(=O)Cc3ccc(S(=O)(=O)CC)cc3)ccc21` [Example 118, N-{2-[(2,4-Difluoro-phenoxy)-difluoromethyl]-1-ethyl-1H-benzoimidazol-5-yl}-2-(4-ethanesulfonyl-phenyl)-acetamide], the inhibition at 1 µM came to 5.43% and the inhibition at 10 µM was found to be 9.14%.

For the compound `CCS(=O)(=O)c1ccc(CC(=O)Nc2ccc(OC3(c4ccc(Cl)c(F)c4)CCC3)c(F)c2)cc1` [Example 119, N-{4-[1-(4-Chloro-3-fluorophenyl)-cyclobutoxy]-3-fluoro-phenyl}-2-(4-ethanesulfonyl-phenyl)-acetamide], the pIC50 was more than 7.30, the inhibition at 1 µM stood at 84.9% and the inhibition at 10 µM is 84.5%.

As for `CCS(=O)(=O)c1ccc(CC(=O)Nc2ccc(OC3(c4ccc(Cl)c(F)c4)CCCC3)cc2)cc1` [Example 120, N-{4-[1-(4-Chloro-3-fluorophenyl)-cyclopentyloxy]-phenyl}-2-(4-ethanesulfonyl-phenyl)-acetamide], the negative-log IC50 (pIC50) is more than 7.30, the inhibition at 1 µM came out at 84.8% and the inhibition at 10 µM stood at 89.6%.

For the compound `CCS(=O)(=O)c1ccc(CC(=O)Nc2ccc(OC3(c4ccc(Cl)c(F)c4)CCCC3)c(F)c2)cc1` [Example 121, N-{4-[1-(4-Chloro-3-fluorophenyl)-cyclopentyloxy]-3-fluorophenyl}-2-(4-ethanesulfonyl-phenyl)-acetamide], the pIC50 was more than 7.30, the inhibition at 1 µM was determined as 86.8% and the inhibition at 10 µM worked out at 90.2%.

Take `CCS(=O)(=O)c1ccc(CC(=O)Nc2ccc(OC3(c4ccc(Cl)c(F)c4)CCCCC3)c(F)c2)cc1` [Example 122, N-{4-[1-(4-Chloro-3-fluorophenyl)-cyclohexyloxy]-3-fluorophenyl}-2-(4-ethanesulfonyl-phenyl)-acetamide]: the negative logarithm of the IC50 (pIC50) was more than 7.30, the inhibition at 1 µM was 77.3% and the inhibition at 10 µM was found to be 81.2%.

Regarding `CCS(=O)(=O)c1ccc(CC(=O)Nc2ccc(OC3(c4ccc(Cl)cc4Cl)CCCC3)cc2)cc1` [Example 123, N-{4-[1-(2,4-Dichlorophenyl)-cyclopentyloxy]-phenyl}-2-(4-ethanesulfonyl-phenyl)-acetamide], the pIC50 is more than 7.30, the inhibition at 1 µM turned out to be 82% and the inhibition at 10 µM turned out to be 87.2%.

Regarding `CCS(=O)(=O)c1ccc(CC(=O)Nc2ccc(OC3(c4ccc(Cl)c(F)c4)CCCCC3)cc2)cc1` [Example 124, N-{4-[1-(4-Chloro-3-fluorophenyl)-cyclohexyloxy]-phenyl}-2-(4-ethanesulfonyl-phenyl)-acetamide], the pIC50 was more than 7.30, the inhibition at 1 µM is 82.2% and the inhibition at 10 µM was 84.8%.

`CCS(=O)(=O)c1ccc(CC(=O)Nc2ccc3c(c2)nc(C(C)(C)Oc2ccc(F)cc2F)n3C2CC2)cc1` [Example 125, N-{1-Cyclopropyl-2-[1-(2,4-difluorophenoxy)-1-methylethyl]-1H-benzoimidazol-5-yl}-2-(4-ethanesulfonyl-phenyl)-acetamide]: the pIC50 was more than 7.30, the inhibition at 1 µM was found to be 89.2% and the inhibition at 10 µM was found to be 90.4%.

For the compound `CCn1c(C(C)(C)Oc2cc(F)ccc2F)nc2cc(NC(=O)Cc3ccc(S(=O)(=O)CC)cc3)ccc21` [Example 126, N-{2-[1-(2,5-Difluorophenoxy)-1-methylethyl]-1-ethyl-1H-benzoimidazol-5-yl}-2-(4-ethanesulfonylphenyl)-acetamide], the pIC50 is more than 7.30, the inhibition at 1 µM is 85.9% and the inhibition at 10 µM worked out at 89.5%.

In the case of `CCN(C(=O)C(C)(C)Oc1ccc(NC(=O)Cc2ccc(S(=O)(=O)CC)cc2)cc1)c1ccc(Cl)cc1` [Example 127, N-(4-Chlorophenyl)-2-{4-[2-(4-ethanesulfonylphenyl)acetylamino]-phenoxy}-N-ethyl-2-methylpropionamide], the inhibition at 1 µM was 68% and the inhibition at 10 µM stood at 75.8%.

With `CCS(=O)(=O)c1ccc(CC(=O)Nc2ccc(OC(C)(C)C(=O)N(C)c3ccc(Cl)cc3)cc2)cc1` [Example 128, N-(4-Chlorophenyl)-2-{4-[2-(4-ethanesulfonylphenyl)acetylamino]-phenoxy}-2-N-dimethylpropionamide], the inhibition at 1 µM turned out to be 64.2% and the inhibition at 10 µM is 79.8%.

As to `CCN(C(=O)C(C)(C)Oc1ccc(NC(=O)Cc2ccc(S(=O)(=O)CC)cc2)cc1)c1ccc(Cl)cc1Cl` [Example 129, N-(2,4-Dichlorophenyl)-N-ethyl-2-(4-(2-(4-(ethylsulfonyl)phenyl)acetamido)phenoxy)-2-methylpropanamide], the inhibition at 1 µM worked out at 2.49% and the inhibition at 10 µM came to 8.35%.

In the case of `CCN(C(=O)C(C)(C)Oc1ccc(NC(=O)Cc2ccc(S(=O)(=O)CC)cc2)cc1)c1ccc(Cl)c(F)c1` [Example 130, N-(4-Chloro-3-fluorophenyl)-N-ethyl-2-(4-(2-(4-(ethylsulfonyl)phenyl)acetamido)phenoxy)-2-methylpropanamide], the pIC50 is less than 7.00, the inhibition at 1 µM worked out at 73% and the inhibition at 10 µM was determined as 85.2%.

For the compound `CCN(C(=O)C(C)(C)Oc1ccc(NC(=O)Cc2ccc(S(=O)(=O)CC)cc2)cc1F)c1ccc(Cl)c(F)c1` [Example 131, N-(4-Chloro-3-fluorophenyl)-N-ethyl-2-(4-(2-(4-(ethylsulfonyl)phenyl)acetamido)-2-fluorophenoxy)-2-methylpropanamide], the pIC50 was 7.00 to 7.30, the inhibition at 1 µM was determined as 69.8% and the inhibition at 10 µM came to 72.9%.

For the compound `CCN(C(=O)C(C)(C)Oc1ccc(F)cc1F)c1ccc(NC(=O)Cc2ccc(S(=O)(=O)CC)cc2)cc1` [Example 132, 2-(2,4-Difluorophenoxy)-N-ethyl-N-(4-(2-(4-(ethylsulfonyl)phenyl)acetamido)phenyl)-2-methylpropanamide], the inhibition at 1 µM was determined as 52.9% and the inhibition at 10 µM was 60.9%.

As to `CCS(=O)(=O)c1ccc(CC(=O)Nc2ccc(OC3(c4ccc(Cl)cc4Cl)CCCCC3)cc2)cc1` [Example 134, N-(4-((1-(2,4-Dichlorophenyl)cyclohexyl)oxy)phenyl)-2-(4-(ethylsulfonyl)phenyl)acetamide], the pIC50 is more than 7.30, the inhibition at 1 µM is 77.3% and the inhibition at 10 µM stood at 81.1%.

For the compound `CCS(=O)(=O)c1ccc(CC(=O)Nc2ccc(OC3(c4ccc(Cl)cc4Cl)CCCCC3)c(F)c2)cc1` [Example 135, N-(4-((1-(2,4-Dichlorophenyl)cyclohexyl)oxy)-3-fluorophenyl)-2-(4-(ethylsulfonyl)phenyl)acetamide], the pIC50 is 7.00 to 7.30, the inhibition at 1 µM was determined as 73.2% and the inhibition at 10 µM amounted to 77%.
